For this data set, the target named is T1, hyaluronidase (Bos taurus, UniProt Q2YDK3).
T1 construct: purchased Sigma H 3506; host or cells: bovine testes (natural source)
T1 sequence (Q2YDK3 36-553): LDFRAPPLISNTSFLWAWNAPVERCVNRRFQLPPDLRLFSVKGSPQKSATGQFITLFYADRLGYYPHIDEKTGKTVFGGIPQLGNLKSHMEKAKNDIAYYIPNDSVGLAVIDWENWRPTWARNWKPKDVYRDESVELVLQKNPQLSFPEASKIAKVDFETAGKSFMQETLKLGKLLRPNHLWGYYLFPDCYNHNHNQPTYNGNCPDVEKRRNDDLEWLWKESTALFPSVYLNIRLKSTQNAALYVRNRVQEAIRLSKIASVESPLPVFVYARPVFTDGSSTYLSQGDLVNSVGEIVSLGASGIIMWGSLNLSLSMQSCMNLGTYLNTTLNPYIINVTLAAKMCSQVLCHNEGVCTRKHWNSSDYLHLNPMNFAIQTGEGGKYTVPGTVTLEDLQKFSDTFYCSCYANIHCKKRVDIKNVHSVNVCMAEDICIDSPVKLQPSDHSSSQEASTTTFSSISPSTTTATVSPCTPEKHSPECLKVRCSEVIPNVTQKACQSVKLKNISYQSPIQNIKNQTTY
In words: Stability in the presence of hyaluronidase (decrease of viscosity). The format is in vitro ADME, bovine. The method, then:
The stability of Solu-NaHA in the presence of the enzyme specific for hyaluronic acid, hyaluronidase (Sigma, H 3506, Hyaluronidase lyophilized (EC 3.2.1.35) Type I-S, from bovine testes, 608 U/mg solid) was measured by the decrease of the viscosity in time in comparison to blank. The degree of stability (protection against action of hyaluronidase) is defined as a decrease in the viscosity of the NaHA solution upon addition of the enzyme (dose of enzyme—10 U/ml). The control used was 0.1% solution of NaHA without the wrapping polymer (blank). Samples were maintained on a water bath at temperature 37° C. during 5 hrs. Sample made by Visco Star Plus. The decrease in viscosity was estimated in percentage to its initial value. The results in FIG. 5 show the stability of Solu-NaHA prepared with polymer A (NaHA with HPS) or with Polymer B (NaHA with B-790) against the action of hyaluronidase, established as 84-100% vs control 58-63%.
The stability of NaHA in the Solu-NaHA in the presence of hyaluronidase was measured by the decrease of the viscosity over time in comparison to blank. The stability of Solu-NaHA against the action of hyaluronidase was 70-90% vs 40-45% in blank (0.5% solution of NaHA).
The degree of stability of NaHA was measured as described in Example 7 above. The control used was 0.5% solution of NaHA without any polymer (blank). Samples were maintained on a water bath at temperature 37° C. during 5 hrs. Measurement of viscosity was made by Visco Star Plus. Decrease in viscosity is estimated in percentage relative to its initial value. It is established, that protection of Solu-NaHA with polymer A (HPS) against action of hyaluronidase gives a viscosity of 67-70% vs the control protection of 20-27%.

Take “sodium hyaluronate [0.5% solution of NaHA]”: the “viscosity under enzyme activity, percentage relative to initial value” (0.5% NaHA, 37° C., 5 hrs) is on record as 20-27%. Moreover, the “stability against the action of hyaluronidase” value (0.5% NaHA, viscosity over time versus blank (FIG. 6)) is 40-45%.
Regarding “sodium hyaluronate [0.1% solution of NaHA]”, the “stability against the action of hyaluronidase” value (0.1% NaHA, enzyme 10 U/ml, 37° C., up to 5 hrs, viscosity in percentage to initial value) is listed as 58-63%.

The values are drawn from US20060228419A1, “Solvent-free process for preparation of hydrophilic dispersions of nanoparticles of inclusion complexes” (SoluBest Ltd., priority 2005, published 2006).
